Several values for one entry are separate records, joined by “and”; a condition that tells them apart may be missing. Equal values may be shown once.
Tested on: 616215-338-R-J1-PDC tumor spheroids, viability
Assay: Anticancer human tumor 616215-338-R-J1-PDC patient-derived colon adenocarcinoma cell line growth inhibition [GQUAD]
Details: spheroids with HUVEC and MSC; for viability, T/C: stronger effect = lower value
From the text: DNA G-quadruplex Stabilizer Agents in Combinations in Complex Spheroids
A high-throughput screen of multi-cell type tumor spheroids was designed to identify active combinations of DNA G-quadruplex stabilizer agents and targeted small molecules. Complex spheroids include a stromal component modeled by human endothelial cells (HUVEC) and fibroblasts modeled by human mesenchymal stem cells (MSCs). The concentration ranges selected for each drug and investigational agent were based upon clinically achievable concentrations if the clinical Cmax of the agent was known.
Compounds. The drugs and investigational agents: pidnarulex (CX-5461; NSC782164), APTO-253 (NSC789042), BRACO-19 (NSC847499), peposertib (NSC802822), ceralasertib (NSC780249), elimusertib (NSC800525), camonsertib (NSC841442), AZD-1390 (NSC803789), olaparib (NSC753686), talazoparib (NSC767125), ART-558 (NSC835418), sotorasib (NSC818433), MRTX-1133 (NSC836407), SN-38 (NSC673596), topotecan (NSC609699), etoposide (NSC141540), doxorubicin (NSC123127), gemcitabine (NSC613327), 5-fluorouracil (NSC19893), paclitaxel (NSC125973), vemurafenib (NSC761431), panobinostat (NSC761190), R-306465 (JNJ-16241199; NSC773264), adavosertib (NSC754352), TP-3654 (NSC805149), carboplatin (NSC241240), KSQ-4279 (NSC840948), and staurosporine (NSC755774) were obtained from the National Cancer Institute (NCI) Developmental Therapeutics Program Chemical Repository (34). The FDA-approved anticancer drug set is available from the NCI Developmental Therapeutics Program. […] The stock solutions were prepared in dimethyl sulfoxide (DMSO, Sigma-Aldrich, St. Louis, MO, cat. D2650) at 800-fold the tested concentration and stored at -70 degrees C prior to their use. All drugs and investigational agents were tested over a range starting from a high concentration at or near the clinical Cmax and decreasing in half-log increments. If the clinical Cmax for an agent had not been determined, the highest concentration tested was 10 microM.
2.3 Cell Culture. All cells were maintained in an incubator at 37 degrees C and 5% CO2 with 95% humidity. The PDC lines were cultured according to standard operating procedures established by the NCI PDMR. All PDCs were thawed and cultured in Matrigel-coated flasks prepared with a working solution of 1X Ham's F-12 nutrient mix, without supplementation (Invitrogen, cat. 11765054), 100 U/mL penicillin-streptomycin (Invitrogen, cat. 15140122), and 2.5% Matrigel (Corning Inc., cat. 354248) for the first three passages. The 857933-349-R-J2-PDC line was cultured in 6C/Colon 1B media, which includes advanced DMEM/F-12 (Thermo Fisher Scientific, cat. 12634028), 10 mM HEPES (Thermo Fisher Scientific, cat. 15630080), 1X GlutaMAX supplement (Thermo Fisher Scientific, cat. 35050061), 0.1 mg/mL primocin (InvivoGen, cat. ant-pm-2), 10% defined fetal bovine serum, heat inactivated (HyClone Laboratories Inc., cat. SH30070.03HI), 50% L-WRN conditioned media (ATCC, cat. CRL-3276), 1.25 mM N-Acetyl-L-cysteine (Sigma-Aldrich, cat. A9165), 10 mM nicotinamide (Sigma-Aldrich, cat. N0636), 1X B-27 supplement (Thermo Fisher Scientific, cat. 17504044), 1X N-2 supplement (Thermo Fisher Scientific, cat. 17502048), 10 microM Y-27632 dihydrochloride (Tocris Bioscience, cat. 1254), and 50 ng/mL human EGF recombinant protein (Thermo Fisher Scientific, cat. PHG0311). The 485176-168-R4-J1-PDC line was cultured in Panc media, which includes all 6C/Colon 1B media components plus 100 ng/mL human FGF-10 (Thermo Fisher Scientific, cat. 100-26), 500 nM SB-431542 (Selleckchem, cat. S1067), and gastrin (Tocris, cat. 3006).
[…]
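Further: spheroids exposed to agents for 7 days before readout.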
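Wherever viability, T/C is given: percent viability relative to DMSO vehicle control wells taken as 100%.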

O=c1[nH]cc(F)c(=O)[nH]1 + Cc1cnc(CNC(=O)c2c(=O)c3ccc(N4CCCN(C)CC4)nc3n3c2sc2ccccc23)cn1 was tested, and the IC50 (curve of first compound, second compound 0.0316 µM) was 786 nM, the IC50 (curve of first compound, second compound 0.1 µM) was 559 nM and the IC50 (curve of first compound, second compound 0.316 µM) was under 31.6 nM. It also gave an IC50 (curve of first compound, second compound 1 µM) of under 31.6 nM, an IC50 (curve of first compound, second compound 3.16 µM) of under 31.6 nM and an IC50 (curve of first compound, second compound 10 µM) of under 31.6 nM. The viability, T/C (second compound 0.0316 µM, first compound 0.0316 µM) was 98.8%, the viability, T/C (second compound 0.0316 µM, first compound 0.1 µM) was 98.7% and the viability, T/C (second compound 0.0316 µM, first compound 0.316 µM) was 62.9%. For the same molecule, the viability, T/C (second compound 0.0316 µM, first compound 1 µM) was 51.5%, the viability, T/C (second compound 0.0316 µM, first compound 3.16 µM) was 40.4% and the viability, T/C (second compound 0.0316 µM, first compound 10 µM) was 35.8%. It also gave a viability, T/C (second compound 0.1 µM, first compound 0.0316 µM) of 66.8%, a viability, T/C (second compound 0.1 µM, first compound 0.1 µM) of 62.4% and a viability, T/C (second compound 0.1 µM, first compound 0.316 µM) of 54.1%. For the same molecule, the viability, T/C (second compound 0.1 µM, first compound 1 µM) was 40.4%, the viability, T/C (second compound 0.1 µM, first compound 3.16 µM) was 46.5% and the viability, T/C (second compound 0.1 µM, first compound 10 µM) was 31.5%. It also gave a viability, T/C (second compound 0.316 µM, first compound 0.0316 µM) of 40.9%, a viability, T/C (second compound 0.316 µM, first compound 0.1 µM) of 48.7% and a viability, T/C (second compound 0.316 µM, first compound 0.316 µM) of 54.6%. For the same molecule, the viability, T/C (second compound 0.316 µM, first compound 1 µM) was 36.1%, the viability, T/C (second compound 0.316 µM, first compound 3.16 µM) was 43% and the viability, T/C (second compound 0.316 µM, first compound 10 µM) was 39.2%. The viability, T/C (second compound 1 µM, first compound 0.0316 µM) was 32.4%, the viability, T/C (second compound 1 µM, first compound 0.1 µM) was 39.2% and the viability, T/C (second compound 1 µM, first compound 0.316 µM) was 42.6%. For the same molecule, the viability, T/C (second compound 1 µM, first compound 1 µM) was 33.4%, the viability, T/C (second compound 1 µM, first compound 3.16 µM) was 36.6% and the viability, T/C (second compound 1 µM, first compound 10 µM) was 22.4%. It also gave a viability, T/C (second compound 3.16 µM, first compound 0.0316 µM) of 31.7%, a viability, T/C (second compound 3.16 µM, first compound 0.1 µM) of 25.2% and a viability, T/C (second compound 3.16 µM, first compound 0.316 µM) of 22.1%. The viability, T/C (second compound 3.16 µM, first compound 1 µM) was 30.3%, the viability, T/C (second compound 3.16 µM, first compound 3.16 µM) was 34.1% and the viability, T/C (second compound 3.16 µM, first compound 10 µM) was 28.7%. The viability, T/C (second compound 10 µM, first compound 0.0316 µM) was 25.7%, the viability, T/C (second compound 10 µM, first compound 0.1 µM) was 28.7% and the viability, T/C (second compound 10 µM, first compound 0.316 µM) was 25.6%. It also gave a viability, T/C (second compound 10 µM, first compound 1 µM) of 30.3%, a viability, T/C (second compound 10 µM, first compound 3.16 µM) of 25.6% and a viability, T/C (second compound 10 µM, first compound 10 µM) of 30.4%.

C=CC(=O)N1CCN(c2nc(=O)n(-c3c(C)ccnc3C(C)C)c3nc(-c4c(O)cccc4F)c(F)cc23)C(C)C1 (stereo not drawn) was tested, and the viability, T/C (compound 0.0316 µM) was 104% and 97.8% and 91.6%, the viability, T/C (compound 0.1 µM) was 90.8% and 91.2% and 98.1% and the viability, T/C (compound 0.316 µM) was 90.4% and 93.1% and 102%. For the same molecule, the viability, T/C (compound 1 µM) was 94.2% and 93.5% and 95.7%, the viability, T/C (compound 3.16 µM) was 91.2% and 93.4% and 92.8% and the viability, T/C (compound 10 µM) was 68.1% and 71.2% and 75.3%. The IC50 (curve of compound) was over 10000 nM.

With CCCS(=O)(=O)Nc1ccc(F)c(C(=O)c2c[nH]c3ncc(-c4ccc(Cl)cc4)cc23)c1F the viability, T/C (compound 0.0316 µM) was 100% (2×) and 106%, the viability, T/C (compound 0.1 µM) was 103% and 95.3% and 98.6% and the viability, T/C (compound 0.316 µM) was 97.9% and 100% and 97.8%. For the same molecule, the viability, T/C (compound 1 µM) was 97% and 88.9% and 91.9%, the viability, T/C (compound 3.16 µM) was 89.7% and 88.8% and 104% and the viability, T/C (compound 10 µM) was 3.68% and 3.75% and 6.39%. For the same molecule, the IC50 (curve of compound) was 5380 nM and 5350 nM and 5840 nM.

In the case of CC(C)(O)C1CCC(Nc2ccc3ncc(-c4cccc(C(F)(F)F)c4)n3n2)CC1 (stereo not drawn), the viability, T/C (compound 0.0316 µM) is reported as 103% and 105% (2×), the viability, T/C (compound 0.1 µM) is reported as 92.2% and 90.8% and 100% and the viability, T/C (compound 0.316 µM) is reported as 108% and 95.6% and 93.2%. The viability, T/C (compound 1 µM) was 16.1% and 27.9% and 33.8%, the viability, T/C (compound 3.16 µM) was 0.52% and 1.27% and 3.2% and the viability, T/C (compound 10 µM) was 12.4% and 1.83% and 2.83%. For the same molecule, the IC50 (curve of compound) was 631 nM and 686 nM and 729 nM.
